Laboratory results published in the METLIN SMRT retention time set (Domingo-Almenara et al. 2019).

Assay: gradient 5% acetonitrile 3 min, to 50% in 2 min, to 85% in 15 min, held 3 min, 100 µL/min
Settings: column: Zorbax Extend-C18 2.1 x 50 mm; eluents: water / acetonitrile, 0.1% formic acid
Method in brief: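 Each retention time is based on an adduct peak selected computationally and verified by manual inspection. Measurements used HPLC–quadrupole time-of-flight mass spectrometry in positive and negative ionization mode on mixtures of ~100 pure standards. Chromatography ran on a Zorbax Extend-C18 column (2.1 × 50 mm, 1.8 μm) at 100 μL/min with water and acetonitrile, each containing 0.1% formic acid, and dead and dwell volumes of 40 μL and 900 μL.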

RP-LC retention time [s] | Structure (SMILES)
724 | COc1ccc(N2CC(c3nc(-c4ccccn4)no3)CC2=O)cc1Cl (stereo not given)
676 | CCC(C(=O)N1CCC(N2CCCCC2)CC1)n1nc(C)c2sc3ccccc3c2c1=O (stereo not given)
842 | Cc1ccc(NC(=O)C2CCc3sc(C(=O)N4CCOCC4)cc3C2)cc1 (stereo not given)
761 | CCNC(=O)N1CCCC1c1nc(-c2ccc(OC)cc2)no1 (stereo not given)
667 | O=C(CCc1c(-c2ccc(Br)cc2)nc2ccccn12)NC1CCCC1
1020 | CCOC(=O)Cc1c(C)nc2cc(-c3ccccc3)nn2c1C
1040 | Fc1ccc(-c2noc(-c3nc(-c4ccncc4)no3)n2)cc1F
1030 | O=S(=O)(c1cc(-c2nnc(C3CCC3)o2)co1)N1CCc2ccccc2C1
686 | CC(C)NC(=O)C1CCCN(c2nc3ncn(CC(=O)Nc4ccccc4)c(=O)c3s2)C1 (stereo not given)
702 | CC1CCc2[nH]nc(C(=O)NCC3CCCO3)c2C1 (stereo not given)
805 | CC(C)n1nnc2cc(C(=O)N(C)CC(=O)Nc3cccc(Br)c3)ccc21
1010 | Cn1cc(C(=O)NCc2cc(F)cc(F)c2)c(S(=O)(=O)N2CCSCC2)n1
822 | CC(C)NC(=O)N1CCCC(c2cccc(C(=O)NCc3ccc4c(c3)OCO4)c2)C1 (stereo not given)
813 | Cc1ccc(N2CCC(NC(=O)c3cccc(C#N)c3)C2=O)cc1 (stereo not given)
653 | Cc1cc(C)c2c(N3CCOCC3)nc(C(=O)N3CCN(c4ccccc4)CC3)nc2n1
823 | Cc1ccc(N2CCN(C(=O)c3cn4nc(Cl)ccc4n3)CC2)cc1
788 | CCN1C(SCC(=O)Nc2c(C)cc(C)cc2C)=NS(=O)(=O)c2ccccc21
691 | O=C(NCCCNc1nc(Nc2cccc(NC(=O)N3CCCC3)c2)ncc1I)c1cccs1
646 | O=C(NCCc1nc2cccnc2n1-c1ccccc1)c1ccoc1
1220 | CC(C)(C)c1ccc(-c2noc(Cn3c(=O)n(-c4ccccc4F)c(=O)c4sccc43)n2)cc1
1120 | CCCN1C(=O)c2cc(S(=O)(=O)Nc3cccc(Cl)c3)ccc2Oc2cccnc21
886 | Cc1ccc2c(c1)N(C(=O)Cn1ncn3c(C)c(C(=O)NCc4ccccc4)c(C)c3c1=O)CCO2

RP-LC retention time [s] | Structure (SMILES)
752 | O=C(Cc1cccs1)N1CCC(c2nnc(C(F)(F)F)o2)CC1
644 | CNC(=O)c1ccc2c(c1)CCN2C(=O)C(C)C
807 | CCS(=O)(=O)N1CC(=O)N(c2cc(C)ccc2C)C(C)(C(=O)NCc2ccccc2)C1 (stereo not given)
1120 | CCn1cc(-c2nc(C)c(C(=O)Nc3ccccc3OC)s2)c2cccnc21
856 | COC(=O)C1=C(C)N(Cc2ccccc2)C(=O)NC1c1ccccc1[N+](=O)[O-] (stereo not given)
727 | COC(=O)c1c(N)n(C(C)c2ccccc2)c2nc3ccccc3nc12 (stereo not given)
694 | CCCC(=O)N1CCCC(c2nc(CNC(=O)C3CCC3)cs2)C1 (stereo not given)
627 | O=C(NCc1ccc2c(c1)OCO2)C(=O)NCC1(CO)CC1
901 | Cc1ccc(NC(=O)CSc2nc(N3CCCCC3)nc3ccccc23)c(Cl)c1
830 | CCc1ccc(NC(=O)c2c(C)oc3nc(C)nc(N4CCCC4)c23)cc1
602 | COc1ccccc1N1CCN(Cc2nc3nc(C)cc(N4CCOCC4)n3n2)CC1
691 | CCN1CCC(N(Cc2ccc3c(c2)OCO3)C(=O)Nc2cccc(C)c2)CC1
1360 | CC(C)c1ccc(S(=O)(=O)N2CCCC2c2nc(-c3ccc(Cl)cc3)no2)cc1 (stereo not given)
562 | CCn1cc(C)c(C(=O)O)c1CC(=O)NCCCN1CCN(C)CC1
583 | CCc1nc2cccnc2n1CCN1CCN(C(=O)Nc2ccccc2Cl)CC1
822 | COCCN1C(=O)c2ccccc2C(C(=O)NCc2ccco2)C1c1ccc(F)cc1 (stereo not given)
1020 | CCN(CC)c1nc2cc(C(=O)NCC3CC3)ccc2c(=O)n1Cc1ccccc1
836 | Cc1cccc(-n2c(=O)c3c(cc(C)n3C)n(CC(=O)Nc3ccccc3F)c2=O)c1
796 | CN1C(=O)c2cccnc2Sc2cc(NC(=O)c3ccc(F)cc3Cl)ccc21
641 | O=c1[nH]c2ccc(NCc3ccccc3Cl)cc2[nH]1
888 | CCc1ccc(C(C)NC(=O)c2cccc(C3CCCN(C(=O)NC)C3)c2)cc1 (stereo not given)
1040 | CCOc1ccccc1NC(=O)Nc1ccc2c(c1)CCN2S(=O)(=O)c1ccccc1

RP-LC retention time [s] | Structure (SMILES)
1110 | COCC(=O)Nc1ccc(-c2nc(-c3ccc(C)cc3C)co2)cc1
839 | COc1ccc(C)cc1NS(=O)(=O)c1cc2c(s1)CCN(C(=O)C1CC1)C2
815 | O=C(CN1C(=O)NC2(CCCCC2)C1=O)Nc1cccc(Cl)c1
597 | CS(=O)(=O)N1CCC(C2CCN(Cc3ccc(C#N)cc3)C2)CC1 (stereo not given)
925 | CN(C)S(=O)(=O)c1ccc(C(=O)Nc2sc(-c3ccccc3)cc2C(N)=O)cc1
961 | CCn1cc(-c2nc(CC(=O)Nc3ccc(F)c(F)c3)cs2)c2cccnc21
557 | COc1ccc(-c2nc(NCCCN3CCOCC3)c3ccccc3n2)cc1
683 | CCOC(=O)c1cccc(NC(=O)NC2CCN(c3ccccc3)C2=O)c1 (stereo not given)
735 | O=C(NC1CCCC1)c1cccnc1N1CCSCC1
775 | Cc1cccc(N2CCN(C(=O)C3CCCN(c4cnc5nccnc5c4)C3)CC2)c1 (stereo not given)
626 | COc1cc([C@H]2c3cc4c(cc3[C@@H](O)[C@H](CO)[C@H]2C(=O)Nc2cnccn2)OCO4)cc(OC)c1OC
915 | CCc1noc(-c2ccnc(-n3cnc(C(=O)NC4CCCCC4)c3)c2)n1
1050 | Cc1cc(OCC(=O)NCc2cccs2)nc(-c2ccc(Cl)cc2)n1
902 | O=C(CSc1ncnc2c1oc1ccccc12)Nc1nc2ccccc2s1
619 | COCC(=O)NC1CCC12CCN(C(=O)C1CC1)CC2 (stereo not given)
795 | C[C@H]1CN(C(=O)c2cc(F)cc(F)c2)C[C@@H]1c1nc(-c2cccnc2)no1
550 | CC(C)CNC(=O)N1CCCC(Cc2nncn2C)C1 (stereo not given)
966 | CC(=O)N1c2ccc(S(=O)(=O)N3CCCCC3)cc2CC1C(=O)Nc1ccc(C)c(C)c1 (stereo not given)
594 | O=C(Nc1ccc(CC(=O)N2CCOCC2)cc1)c1ccco1
821 | Cc1cccc(-c2nnc(SCc3cc(=O)n4ccsc4n3)o2)c1
819 | CCn1nnc2ccc(-c3noc(-c4cccc(NC(C)=O)c4)n3)cc21
748 | COCCCNC(=O)C1CCN(C2=NS(=O)(=O)C(c3ccc(Cl)cc3)=C2C)CC1

RP-LC retention time [s] | Structure (SMILES)
941 | O=C(CCN1C(=O)c2ccccc2S1(=O)=O)Nc1nc(-c2ccccc2)cs1
576 | O=C(NCCCN1CCOCC1)C1=C2CCCN2c2ccc(F)cc2S1(=O)=O
714 | O=C(c1ccc(-n2cccn2)nc1)N1CCSCC1
860 | Cc1c(Cl)cccc1NC(=O)C(C)C1CCN(C(=O)Nc2ccccc2)CC1 (stereo not given)
863 | CCC(C)NC(=O)Cn1c(=O)cc(-c2nc(C3CC3)no2)c2ccccc21 (stereo not given)
955 | CCc1ccccc1S(=O)(=O)N1CCC(N2CCN(Cc3ccc(C)cc3)C(=O)C2=O)CC1
905 | Cn1c(C(=O)N2CCN(c3ccccc3)CC2)cc2c(=O)oc3ccccc3c21
798 | CCC(C)NC(=O)c1nc2cc(C)c(C)cc2n(C)c1=O (stereo not given)
666 | COCCC1CCN(C(=O)CN(C)C(=O)c2ccc(C#N)cc2)CC1
570 | Cn1c(=O)c(N2CCN(C(=O)c3cc(F)ccc3Cl)CC2)nc2ccncc21
719 | COc1ccc2c(C)c(CCC(=O)N[C@H](C(=O)O)c3ccccc3)c(=O)oc2c1OC
650 | CCOC(=O)c1[nH]c(C)c(CCC(=O)N2CCC(C(=O)NC3CC3)CC2)c1C
928 | CCOC(=O)c1c(S(=O)(=O)N2CCC(C(=O)Nc3ccc(C)cc3C)CC2)c(C)n(CC)c1C
804 | Cc1ccc(C)c(NC(=O)CSc2nc(N3CCCCC3)nc3ccccc23)c1
895 | COC1CCC12CCN(C(=O)c1ccc(C)s1)CC2 (stereo not given)
942 | COc1ccc(C)cc1NC(=O)CCc1cccc2[nH]ccc12
823 | O=C(CN1C(=O)C2CCCN2C(=O)c2ccccc21)c1ccc(Br)cc1 (stereo not given)
708 | Cc1ccc(-c2nc(-c3ccc4c(c3)nnn4CCN(C)C)no2)cc1F
680 | O=C1NCCCn2cc(S(=O)(=O)Nc3cccc(Cl)c3)cc21
750 | Cc1c(Cl)cccc1NC(=O)N(C)CC1CCOCC1
678 | O=C(NCc1ccc(Cl)cc1)c1cn2c(n1)COCC2
604 | CC1CCCN(CCCNC(=O)CC2CCN(C(=O)C3CCCCC3)CC2)C1 (stereo not given)

Structure (SMILES) | RP-LC retention time [s]
O=C(c1nnc(-c2ccc(S(=O)(=O)N3CCOCC3)cc2)o1)N1CCC2(CC1)OCCO2 | 730
O=C(NCCc1ccccc1)N1[C@H]2CC[C@@H]1c1cncnc1C2 | 642
